Source: patent US9573975B2, “Melanoma antigen peptide and uses thereof” (INSERM (INSTITUT NATIONAL DE LA SANTE ET DE LA RECHERCHE …, priority 2012, dated 2017)

Tests used:
Type in all cases: cell-based, human
[1] = system: MELOE-111-30 specific CD4 T cell clone (5F9-DRβ1*0101); test: Peptide stimulation of CD4 T cell clone 5F9, intracellular cytokine staining; conditions: clone 5F9, cognate peptide 10 μM, 5 hours
Protocol: (§1) FIG. 5: Minimal peptides recognized by MELOE-1 specific CD4 T cell clones. MELOE-1 specific CD4 T cell clones were incubated with various concentrations of the indicated peptides during 5 hours in presence of Brefeldin A. TNF-α production was assessed by intracellular labeling with an anti-TNF-α specific antibody. The core peptide sequence is indicated in bold on each figure panel, and black circles illustrate the best fitting peptide.
(§2) Lymphocytes were stimulated for 5 hours in the presence of brefeldin A (10 μg/mL) either with peptide alone (10 μM) in an autopresentation assay or with B-EBV or HLA-class II expressing melanoma cells pulsed 2 hours with the cognate peptide, at a ratio 1:2. In some experiments, blocking mAb against HLA-DP (clone B7.21 from Dr Charron, UMR940, Paris), HLA-DQ (clone SPVL3, Beckman Coulter) or HLA-DR (clone L243, BD Biosciences) were added at a concentration of 12.5 μg/ml. Cells were then stained with APC-conjugated anti-CD4 mAb, fixed with 4% paraformaldehyde, labeled with PE-conjugated anti-cytokine mAb and analyzed by flow cytometry.
(§3) We also documented the T helper profile of each T cell clone, by stimulating the CD4 T cell clones with the cognate peptide, and analyzing cytokine production. All the clones expressed Th1 cytokines (TNFα, IFNγ, IL2 and GM-CSF). On the contrary, these clones differ in their expression of Th2 cytokines. Indeed, the two DQ2 restricted T cell clones (9C12 and 4E2) and the DR1 restricted one (5F9) also strongly express two Th2 cytokines (IL4, and IL13), whereas the DR11-restricted T cell clone only weakly expressed IL4 (Table IV). None of the CD4 T cell expresses IL10 or IL5 at a significant level.
(§4) Three shorter peptides were better recognized by the DQ2-restricted 9C12 T cell clone, the shortest one being MELOE-17-19 (13-mer), recognized with an EC50 of 100 nM. The deletion of the two amino acids in C-term strongly reduces T cell clone recognition. […] Nonetheless all of these clones recognized a series of shortened peptides, thus we cannot formally assess that the shortest ones will be the exact peptides naturally presented on class II molecules.

[2] = system: MELOE-111-30 specific CD4 T cell clone (1A5-DRβ1*1101); test: Peptide stimulation of CD4 T cell clone 1A5, intracellular cytokine staining; conditions: cognate peptide 10 μM, 5 hours
Protocol: as §1, §2, §3, §4

[3] = system: CD4 T cells in PBMC from melanoma patients; test: PBMC from melanoma patients stimulated with MELOE-1, restimulated with peptides, CD4/IFN-γ and CD4/IL4 staining; conditions: for Th1 responses, share of tested microcultures: of 576 tested microcultures, melanoma patients; for melanoma patients with CD4 specific responses (mainly Th1, IFN-g production) / melanoma patients with Th2 responses: responding/tested patients; for melanoma patients with Th2 responses: IL4
Protocol: FIG. 2: (A) Percentages of cytokine producing CD4 T cells among positive microcultures. Fourteen days after PBMC stimulation with MELOE-1 whole polypeptide (2-46), microcultures were re-stimulated with each indicated peptide during 5 hours. IFN-γ (left panel) and IL4 (right panel) production was then assessed by a triple labeling IFN-γ-IL4-CD4. Results were analyzed with a non-parametric test (Kruskal-Wallis) followed by a Dunns post-test. (B) Frequency of microcultures containing CD4 T cells specific for MELOE-1 peptides (assessed by IFN-γ or IL4 intracellular staining after re-stimulation with the 3 indicated peptides). 576 microcultures (from 10 melanoma patients) were analyzed by a contingency table followed by a Fisher exact test.
PBMC from melanoma patients were stimulated with 10 μM of MELOE-1. After 14 days, the presence of CD4 T cells specific for the different regions of MELOE-1 was assessed by restimulating cells with MELOE-12-21, MELOE-111-30 and MELOE-122-46 peptides, followed by CD4/IFN-γ double staining for the detection of Th1 responses, and by CD4/IL4 double staining for Th2 responses. Between brackets is indicated the mean % of cytokine producing CD4 T cells, in positive microcultures.
PBMC from healthy donors or melanoma patients (2·10^5 cells/well) were cultured for 14 days with 10 μM of MELOE-1 whole antigen (46 amino acids) in RPMI medium supplemented with 8% HS, 50 IU/ml of rIL-2 (Chiron, France) and L-Glutamin, in 96-well multiplates. Micro cultures were then restimulated individually with each overlapping peptide (MELOE-12-21, MELOE-111-30, MELOE-118-37, MELOE-126-46 or MELOE-122-46 for melanoma patients) in the presence of 10 μg/mL brefeldin A for 5 hours and the percentage of CD4^+ specific T cells was assessed by TNF-α, IFN-γ or IL-4 intracellular staining A negative control without peptide was included in all experiments.
as §2
In order to confirm the immunogenicity of each MELOE-1 regions in melanoma patients, we stimulated melanoma patients PBMC with the MELOE-1 whole protein, and tested the reactivity of stimulated lymphocytes towards the three most immunogenic regions: 2-21, 11-30, and 22-46. For this study, instead of challenging microcultures with the 18-37 peptide, that appeared poorly immunogenic, we extended the C-terminus region from 26-46 to 22-46, in order to also detect responses to our previously described HLA-DR11-restricted epitope (24-37). […] We tested the induction of CD4 specific responses from MELOE-1 stimulated PBMC of 10 melanoma patients. We documented CD4 responses specific for the central region of MELOE-1 (11-30) for 7/9 patients, whereas responses specific for MELOE-12-21 and MELOE-122-46 were respectively detected in 4/9 and 5/9 patients (Table III). These responses were mainly Th1 responses (IFN-g production) while less frequent Th2 responses specific for the three regions of MELOE-1 were detected in 3/9 patients for MELOE-12-21, 2/9 patients for MELOE-111-30 and 5/9 patients for MELOE-122-46 (Table III). […] Concerning Th2 responses, much less frequent, the C-term region appeared to induce more frequently the growth of IL-4 producing CD4 T cells than the two other regions (FIG. 2A). […]

[4] = system: MELOE-12-21 specific CD4 T cell clone (9C12-DQβ1*0202); test: Peptide stimulation of CD4 T cell clone 9C12, intracellular cytokine staining; conditions: cognate peptide 10 μM, 5 hours
Protocol: as §1, §2, §3, §4

With TSREQFLPSEGAACPPWHPS [MELOE-111-30] the “Cytokine profile: GM-CSF” value [1] was “GM-CSF ^high”, the “Cytokine profile: IFN” value [1] was “IFN ^high” and the “Cytokine profile: IL2” value [1] was “IL2 ^low”. For the same sequence, the “Cytokine profile: IL4” value [1] was “IL4 ^high”, the “Cytokine profile: IL5” value [1] was “IL5 ^neg” and the “Cytokine profile: IL10” value [1] was “IL10 ^neg”. The “Cytokine profile: IL13” value [1] was “IL13 ^high”, the “Cytokine profile: TNF” value ([1]; autopresentation) was “TNF ^high” and the “Cytokine profile: GM-CSF” value [2] was “GM-CSF ^high”. The “Cytokine profile: IFN” value [2] was “IFN ^high”, the “Cytokine profile: IL2” value [2] was “IL2 ^high” and the “Cytokine profile: IL4” value [2] was “IL4 ^low”. For the same sequence, the “Cytokine profile: IL5” value [2] was “IL5 ^neg”, the “Cytokine profile: IL10” value [2] was “IL10 ^neg” and the “Cytokine profile: IL13” value [2] was “IL13 ^neg”. The “Cytokine profile: TNF” value ([2]; autopresentation) was “TNF ^high”, the “mean % of cytokine producing CD4 T cells, in positive microcultures (IFN-γ, Th1)” value (shortened to “mean % … (IFN-γ, Th1)”) ([3]; Pt ≠ 1) was “(1.4% ± 0.7)” and the “mean % of cytokine producing CD4 T cells, in positive microcultures (IL4, Th2)” value (“mean % … (IL4, Th2)” for short) ([3]; Pt ≠ 1) was “(1%)”. For the same sequence, the “mean % … (IFN-γ, Th1)” value ([3]; Pt ≠ 2) was “(1.6% ± 1.2)”, the “mean % … (IFN-γ, Th1)” value ([3]; Pt ≠ 3) was “(16.2% ± 33.2)” and the “mean % … (IFN-γ, Th1)” value ([3]; Pt ≠ 4) was “(0.9% ± 0.5)”. For the same sequence, the “mean % … (IFN-γ, Th1)” value ([3]; Pt ≠ 5) was “(1.5% ± 1.1)”, the “mean % … (IFN-γ, Th1)” value ([3]; Pt ≠ 6) was “(1.5% ± 1.9)” and the “mean % … (IFN-γ, Th1)” value ([3]; Pt ≠ 8) was “(2.9% ± 0.04 )”. For the same sequence, the “mean % … (IL4, Th2)” value ([3]; Pt ≠ 9) was “(0.6% ± 0.09)”, the “Th1 responses, share of tested microcultures” value [3] was 10.8% and the “melanoma patients with CD4 specific responses (mainly Th1, IFN-g production)” value [3] was 7/9. For the same sequence, the “melanoma patients with Th2 responses” value [3] was 2/9.
For “SCVGYPDEATSREQFLPSEG (SCVGYPDEATSREQFLPSEC) [MELOE-12-21]”, the “Cytokine profile: GM-CSF” value [4] was “GM-CSF ^high”, the “Cytokine profile: IFN” value [4] was “IFN ^high” and the “Cytokine profile: IL2” value [4] was “IL2 ^high”. For the same sequence, the “Cytokine profile: IL4” value [4] was “IL4 ^high”, the “Cytokine profile: IL5” value [4] was “IL5 ^low” and the “Cytokine profile: IL10” value [4] was “IL10 ^neg”. For the same sequence, the “Cytokine profile: IL13” value [4] was “IL13 ^high”, the “Cytokine profile: TNF” value ([4]; autopresentation) was “TNF ^high” and the “mean % … (IFN-γ, Th1)” value ([3]; Pt ≠ 1) was “(0.7%)”. For the same sequence, the “mean % … (IFN-γ, Th1)” value ([3]; Pt ≠ 2) was “(0.8% ± 0.2)”, the “mean % … (IFN-γ, Th1)” value ([3]; Pt ≠ 3) was “(1.7% ± 2.9)” and the “mean % … (IL4, Th2)” value ([3]; Pt ≠ 4) was “(0.7%)”. For the same sequence, the “mean % … (IFN-γ, Th1)” value ([3]; Pt ≠ 5) was “(0.6%)”, the “mean % … (IL4, Th2)” value ([3]; Pt ≠ 5) was “(0.7% ± 0.1)” and the “mean % … (IL4, Th2)” value ([3]; Pt ≠ 9) was “(0.6%)”. The “Th1 responses, share of tested microcultures” value [3] was 3.3%, the “melanoma patients with CD4 specific responses (mainly Th1, IFN-g production)” value [3] was 4/9 and the “melanoma patients with Th2 responses” value [3] was 3/9.
